# Test results reported in patent US4111955A, “N-Trihalomethanesulfenyl carbamoyloximino di-sulfur heterocyclic compounds” (priority 1976, dated 1978).
# Tests used:
# [1] = system: bean aphid (Aphis fabae Scop.); assay: Bean Aphid Foliage Spray Test; assay type: in vivo; design: key to pesticidal activity rating, Aphid: A: excellent control; B: partial control; C: no control
# Method: Adults and nymphal stages of the bean aphid (Aphis fabae Scop.) reared on potted dwarf nasturtium plants at 65°-70° F. and 50-70 percent relative humidity, constituted the test insects. For testing purposes, the number of aphids per pot was standardized to 100-150 by trimming plants containing excess aphids.
# The test compounds were formulated by diluting the stock suspension with water to give a suspension containing 500 parts of test compound per million parts of final formulation.
# The potted plants (one pot per compound tested) infested with 100-150 aphids, were placed on a revolving turntable and sprayed with 100-110 milliliters of test compound formulation by use of a DeVilbiss spray gun set at 40 psig. air pressure. This application, which lasted 25 seconds, was sufficient to wet the plants to run-off. As a control, 100-110 milliliters of a water-acetone-emulsifier solution containing no test compound were also sprayed on infested plants. After spraying, the pots were placed on their sides on a sheet of white standard mimeograph paper which had been previously ruled to facilitate counting. Temperature and humidity in the test room during the 24 hour holding period were 65°-70° F. and 50-70 percent, respectively. Aphids which fell onto the paper and were unable to remain standing after being uprighted were considered dead. Aphids remaining on the plants were observed closely for movement and those which were unable to move the length of the body upon stimulation by prodding were considered dead. Percent mortality was recorded for various concentration levels.
# (§1) In these tests the pesticidal activity of the compounds against aphid, mite, Southern Armyworm, Bean Beetle and House fly was rated as follows:
# (§2) The LD50 values shown in the above Table II were determined by testing the compositions over an appropriate concentration range obtained by serial dilution of the stock suspension with water. The percent kill was plotted on log-probit graph paper versus parts per million concentration, and the LD50 read from an eye-fitted line drawn through the resultant points.
# [2] = system: aphid, mite, Southern Armyworm, Bean Beetle and House fly; assay: Overall pesticidal activity / insect toxicity compared with methylcarbamoyl derivatives; assay type: in vivo; conditions: all cases except the bean-beetle; Table II
# Text: as §1
# In the above Table, A indicates excellent control, B indicates partial control and C indicates no control. For comparison purposes, there is provided immediately below the data presented for the trihalomethanesulfenyl derivative the activity measurements achieved from the corresponding methyl-carbamoyl derivative adjacent to the chemical designation --NHCH3.
# as §2
# [3] = system: Mexican bean beetle (Epilachna varivestis, Muls.); assay: Mexican Bean Beetle Leaf Spray Test; assay type: in vivo; design: key to pesticidal activity rating, Bean beetle: A: excellent control; B: partial control; C: no control
# Method: Fourth instar larvae of the Mexican bean beetle (Epilachna varivestis, Muls.), reared on Tendergreen bean plants at a temperature of 80°±5° F. and 50±5 percent relative humidity, were the test insects.
# The test compounds were formulated by diluting the stock suspension with water to give a suspension containing 500 parts of test compound per million parts of final formulation. Potted Tendergreen bean plants of standard height and age were placed on a revolving turntable and sprayed with 100-110 milliliters of test compound formulation by use of a DeVilbiss spray gun set at 10 psig air pressure. This application, which lasted 25 seconds, was sufficient to wet plants to run-off. As a control, 100-110 milliliters of a water-acetone-emulsifier solution containing no test compound were also sprayed on infested plants. When dry, the paired leaves were separated and each was placed in a 9 centimeter Petri dish lined with moistened filter paper. Five randomly selected larvae were introduced into each dish, and the dishes were closed. The closed dishes were labeled and held at a temperature of 80°±5° F. for 3 days. Although the larvae could easily consume the leaf within 24 to 48 hours, no more food was added. Larvae which were unable to move the length of the body, even upon stimulation, were considered dead.
# as §1, §2
# [4] = system: two-spotted mite (Tetranychus urticae Koch); assay: Mite Foliage Spray Test; assay type: in vivo; design: key to pesticidal activity rating, Mite: A: excellent control; B: partial control; C: no control
# Method: (§3) Adults and nymphal stages of the two-spotted mite (Tetranychus urticae Koch), reared on Tendergreen bean plants at 80±5 percent relative humidity, were the test organisms. Infested leaves from a stock culture were placed on the primary leaves of two bean plants 6 to 8 inches in height, growing in a 21/2 inch clay pot. 150-200 Mites, a sufficient number for testing, transferred from the excised leaves to the fresh plants in a period of 24 hours. Following the 24 hour transfer period, the excised leaves were removed from the infested plants. The test compounds were formulated by diluting the stock suspension with water to give a suspension containing 500 parts of test compound per million parts of final formulation. The potted plants (one pot per compound) were placed on a revolving turntable and sprayed with 100-110 milliliters of test compound formulation by use of a DeVilbiss spray gun set at 40 psig. air pressure. This application, which lasted 25 seconds, was sufficient to wet the plants to run-off. As a control, 100-110 milliliters of a water solution containing acetone and emulsifier in the same concentrations as the test compound formulation, but containing no test compound, were also sprayed on infested plants. The sprayed plants were held at 80±5 percent relative humidity for 6 days, after which a mortality count of motile forms was made. Microscopic examination for motile forms was made on the leaves of the test plants. Any individual which was capable of locomotion upon prodding was considered living.
# as §1, §2
# [5] = system: mites; assay: Systemic miticidal activity (soil drench of infested bean plants); assay type: in vivo, Tetranychus urticae Koch; conditions: Table II
# Method: as §3, §2
# Systemic treatments were made by drenching 20 milliliters of the test compound formulation into the soil around the roots of bean plants growing in 21/2 inch clay pots. […]
# [6] = Peroral toxicity to mammals (rat); assay type: in vivo; conditions: in vivo, po; rat, peroral, Table II; read-out: Rat P.O. LD50
# Method: (§4) Certain of these compositions were also evaluated to determine their peroral toxicity to mammals. The animal selected for this experiment was the rat. The test results obtained are expressed in terms of the number of milligrams of composition per kilogram of weight of the animal required to achieve a mortality rate of 50 percent (LD50).
# [7] = system: rat; assay: Peroral toxicity to mammals (rat); assay type: in vivo; conditions: fraction of the toxicity of the methylcarbamoyl compound; rat P.O. LD50
# Method: as §4
smiles,measurement,setting,value
"CN(SC(Cl)(Cl)Cl)C(=O)ON=C1CSCCS1 [2-[(N-METHYL-N-TRICHLOROMETHANESULFENYL)-CARBAMOYLOXIMINO]-1,4-DITHIANE]","pesticidal activity rating, Aphid","[1]; 500 parts per million, 24 hour",A
same,LC50,"[1]; Aphis fabae, foliar, 24 h, Table II, read-out: Insect Toxicity, LD50, Aphid",13 µg/mL
same,insect toxicity relative to the methylcarbamoyl composition,[2],essentially equivalent
same,LC50,"[3]; Epilachna varivestis, 72 h, leaf spray, Table II, read-out: Insect Toxicity, LD50, Mexican Bean beetle",10 µg/mL
same,insect toxicity on bean-beetle relative to the methylcarbamoyl composition,[3]; from LD50 values of Table II,five-fold improvement
same,"pesticidal activity rating, Bean beetle","[3]; leaf spray, 500 parts per million, 3 days",A
same,"pesticidal activity rating, Mite","[4]; 500 parts per million, 6 days",A
same,LC50,"[4]; Tetranychus urticae, foliar, Table II, read-out: Insect Toxicity, LD50, Mite",7 µg/mL
same,systemic activity relative to the methylcarbamoyl composition,[5],higher degree of systemic activity
same,LC50,"[5]; Tetranychus urticae, systemic, soil drench, value in parentheses, read-out: Insect Toxicity, LD50, Mite, systemic activity",3 µg/mL
same,LD50,[6],149 mg/kg
same,mammalian toxicity relative to the methylcarbamoyl compound,[7],1/10
